Data from patent US10946029B2, “Dry powder formulation comprising a corticosteroid and a beta-adrenergic for administration by inhalation” (CHIESI FARMACEUTICI S.p.A., priority 2012, dated 2021).

Legend:
[1] = Specific Surface Area by BET nitrogen adsorption (Coulter SA3100); assay type: physicochemical; conditions: micronised beclometasone dipropionate; mean of three determinations
Procedure: Advantageously, the micronized particles of BDP have also a specific surface area comprised between 5.5 and 7.0 m^2/g, preferably between 5.9 and 6.8 m^2/g. The Specific Surface Area is determined by Brunauer-Emmett-Teller (BET) nitrogen adsorption method according to a procedure known in the art.
(§1) The particle size was determined by laser diffraction using a Malvern apparatus. The parameter taken into consideration was the VD in micron of 10%, 50% and 90% of the particles expressed as d(v,0.1), d(v, 0.5) and d(v, 0.9), respectively, which correspond to the mass diameter assuming a size independent density for the particles. The span [d(v,0.9)−d(v,0.1)]/d(v,0.5) is also reported. The Specific Surface Area (SSA) was determined by BET nitrogen adsorption using a Coulter SA3100 apparatus as a mean of three determinations.

[2] = Particle size distribution by laser diffraction (Malvern apparatus); assay type: physicochemical; conditions: micronised beclometasone dipropionate; for Span: [d(v,0.9)−d(v,0.1)]/d(v,0.5); for d (v, 0.1): volume diameter of 10% of the particles; for d (v, 0.5): volume diameter of 50% of the particles; for d (v, 0.9): volume diameter of 90% of the particles
Procedure: The size of the particles active is determined by measuring the characteristic equivalent sphere diameter, known as volume diameter, by laser diffraction. In the reported examples, the volume diameter has been determined using a Malvern apparatus, However, other equivalent apparatus may be used by the skilled person in the art.
as §1

CCC(=O)OCC(=O)[C@@]1(OC(=O)CC)[C@@H](C)C[C@H]2[C@@H]3CCC4=CC(=O)C=C[C@]4(C)[C@@]3(Cl)[C@@H](O)C[C@@]21C [Batch 1, beclometasone dipropionate]
SSA [1]: 6.61 m^2/g
Span [2]: 1.41
d (v, 0.1) [2]: 0.86 μm
d (v, 0.5) [2]: 1.63 μm
d (v, 0.9) [2]: 3.15 μm

CCC(=O)OCC(=O)[C@@]1(OC(=O)CC)[C@@H](C)C[C@H]2[C@@H]3CCC4=CC(=O)C=C[C@]4(C)[C@@]3(Cl)[C@@H](O)C[C@@]21C [Batch 2, beclometasone dipropionate]
SSA [1]: 5.90 m^2/g
Span [2]: 1.31
d (v, 0.1) [2]: 0.96 μm
d (v, 0.5) [2]: 1.81 μm
d (v, 0.9) [2]: 3.33 μm

CCC(=O)OCC(=O)[C@@]1(OC(=O)CC)[C@@H](C)C[C@H]2[C@@H]3CCC4=CC(=O)C=C[C@]4(C)[C@@]3(Cl)[C@@H](O)C[C@@]21C [Batch 3, beclometasone dipropionate]
SSA [1]: 6.12 m^2/g
Span [2]: 1.19
d (v, 0.1) [2]: 0.95 μm
d (v, 0.5) [2]: 1.71 μm
d (v, 0.9) [2]: 2.97 μm

CCC(=O)OCC(=O)[C@@]1(OC(=O)CC)[C@@H](C)C[C@H]2[C@@H]3CCC4=CC(=O)C=C[C@]4(C)[C@@]3(Cl)[C@@H](O)C[C@@]21C [Batch 4, beclometasone dipropionate]
SSA [1]: 6.28 m^2/g
Span [2]: 1.54
d (v, 0.1) [2]: 0.91 μm
d (v, 0.5) [2]: 1.84 μm
d (v, 0.9) [2]: 3.76 μm
